Several values for one entry are separate records, joined by “and”; a condition that tells them apart may be missing. Equal entries are not always repeated.
Experiments:
[1] = system: HFL-1: human embryonic lung cell line; assay: Cytotoxicity in normal mammalian cells (HFL-1); format: cell-based; conditions: HFL1, HFL-1, 24 h, 0.01-100 μM, read-out: IC50 of compounds in various normal mammalian cells
[2] = system: L929: NCTC clone 929, mouse fibroblast cell line; assay: Cytotoxicity in normal mammalian cells (L929); format: cell-based; conditions: L929, 24 h, 0.01-100 μM, read-out: IC50 of compounds in various normal mammalian cells
[3] = system: NIH 3T3: mouse embryonic fibroblast cell line; assay: Cytotoxicity in normal mammalian cells (NIH 3T3); format: cell-based; conditions: NIH3T3, 24 h, 0.01-100 μM, read-out: IC50 of compounds in various normal mammalian cells
[4] = system: CHO-K1: Chinese hamster ovary cell line; assay: Cytotoxicity in normal mammalian cells (CHO-K1); format: cell-based; conditions: Cricetulus griseus; CHO-K1, 24 h, 0.01-100 μM; read-out: IC50 of compounds in various normal mammalian cells
[5] = system: VERO: African green monkey kidney cell line; assay: Cytotoxicity in normal mammalian cells (VERO); format: cell-based; conditions: Chlorocebus sabaeus, 24 h, 0.01-100 μM, read-out: IC50 of compounds in various normal mammalian cells
normal mammalian cells = assay: Cytotoxicity, range over the normal mammalian cell panel; format: cell-based; conditions: HFL-1, L929, NIH3T3, CHO-K1, VERO; 24 h; read-out: IC50 values, range over the normal cell lines
hERG K+ channel = hERG K+ channel binding assay (fluorescence polarization, red fluorescent tracer); conditions: human, probe red fluorescent hERG channel ligand tracer; concentration treated 10 μM
Protocol: To perform the Ames test of J2 and NA49, the number of revertant colonies was counted on each compound-treated plate at the maximum concentration at which the compound was soluble and nontoxic to the S. typhimurium tester strains (Supplementary Material S1). The ratio of the number of revertant colonies in the treated plate to colonies in the vehicle plate. […] For the hERG K^+ channel binding assay of J2 and NA49, the inhibitory activity against the hERG K^+ channel and its ligand was measured using a red fluorescent hERG channel ligand tracer. The final activity was assessed as a decrease in the degree of fluorescence polarization. […]
For hERG K+ channel binding […]
assay, measuring the inhibitory activity against the hERG K+ channel and its ligand using red fluorescent hERG channel ligand tracer. Final activity was assessed by the decrease in fluorescence polarization degree.

[6] = Kinetic solubility by nephelometry; format: physicochemical; conditions: aqueous buffer, kinetic from dmso stock; pH 7, nephelometry
Protocol: (§3) Permeability was evaluated with a parallel artificial membrane permeability (PAMPA) assay using an artificially generated lipid-infused membrane.

[7] = Log P by pH-metric method; format: physicochemical
[8] = Liver microsomal phase I stability assay (mouse); format: in vitro ADME; conditions: mouse liver microsomes
[9] = Liver microsomal phase I stability assay (human); format: in vitro ADME; conditions: human liver microsomes
[10] = In vitro human plasma stability; format: in vitro ADME; conditions: for Half-life predicted from in vitro plasma stability: human plasma
Protocol: as §3

CYP2C9 = CYP2C9 (Homo sapiens, UniProt P11712); assay: CYP450 enzyme inhibition, 2C9; format: in vitro ADME; conditions: compound 0.05~50 μM; read-out: IC50 against CYP450 isotype 2C9
Chain of CYP2C9 (P11712 whole entry): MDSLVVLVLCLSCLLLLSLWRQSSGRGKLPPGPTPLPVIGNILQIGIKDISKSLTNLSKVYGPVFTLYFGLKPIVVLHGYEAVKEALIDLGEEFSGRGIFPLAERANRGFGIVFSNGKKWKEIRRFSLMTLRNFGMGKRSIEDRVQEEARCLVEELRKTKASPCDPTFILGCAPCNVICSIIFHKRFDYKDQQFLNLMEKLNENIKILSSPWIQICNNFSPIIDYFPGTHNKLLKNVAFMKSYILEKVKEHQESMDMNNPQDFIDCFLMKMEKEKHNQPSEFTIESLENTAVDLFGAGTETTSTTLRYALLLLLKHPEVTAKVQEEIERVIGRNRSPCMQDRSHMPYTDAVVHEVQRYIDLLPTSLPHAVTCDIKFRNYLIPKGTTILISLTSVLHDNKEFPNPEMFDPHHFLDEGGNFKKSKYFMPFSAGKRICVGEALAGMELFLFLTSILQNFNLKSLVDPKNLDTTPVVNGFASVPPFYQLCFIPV
Protocol: as §3

CYP450 2D6 = CYP450 2D6 (Homo sapiens, UniProt P10635); assay: CYP450 enzyme inhibition, 2D6; format: in vitro ADME; conditions: compound 0.05~50 μM; read-out: IC50 against CYP450 isotype 2D6
Chain of CYP450 2D6 (P10635 whole entry): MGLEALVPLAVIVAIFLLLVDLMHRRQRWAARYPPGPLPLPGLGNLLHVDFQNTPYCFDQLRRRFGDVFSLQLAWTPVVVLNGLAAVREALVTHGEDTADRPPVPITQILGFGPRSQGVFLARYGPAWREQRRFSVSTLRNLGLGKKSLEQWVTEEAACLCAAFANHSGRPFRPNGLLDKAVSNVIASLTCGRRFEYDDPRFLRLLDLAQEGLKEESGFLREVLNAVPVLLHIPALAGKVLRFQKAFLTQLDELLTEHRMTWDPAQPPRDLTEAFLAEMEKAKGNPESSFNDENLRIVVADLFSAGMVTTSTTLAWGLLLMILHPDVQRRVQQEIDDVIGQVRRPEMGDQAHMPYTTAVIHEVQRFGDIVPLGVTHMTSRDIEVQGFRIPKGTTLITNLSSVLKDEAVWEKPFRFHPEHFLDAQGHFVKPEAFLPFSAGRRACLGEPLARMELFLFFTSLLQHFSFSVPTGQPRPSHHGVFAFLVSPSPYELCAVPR

[11] = Single-dose IV toxicity in ICR mice; format: in vivo, mouse; conditions: male, mouse, in vivo, not achieved by the maximum dose
Excerpt: (§1) Male Sprague–Dawley rats (7-week-old) and male Institute of Cancer Research (ICR) mice (5-week-old) were purchased from Orient Bio (Seongnam, Korea) and Samtako Bio (Osan, Korea), respectively. The experimental animals were housed under conventional conditions and fasted overnight before surgery for catheterization. All procedures for animal experiments were in accordance with the guidelines by the Ewha Woman’s University Institutional Animal Care and Use Committee (IACUC, 15-049 and 16-062), Korea.
(§2) For single-dose toxicity study of each drug, ICR mice were divided into 6 groups of control (0.9% normal saline), vehicle, and four dosages of each inhibitor (n = 4 mice per group). Both inhibitors dissolved in the same solvent system as the pharmacokinetic study were administered to the mice by caudal vein injection at doses of 2.5, 7.5, 15 and 30 mg/kg. After a single administration, all mice were observed daily for general conditions including behavior, hair, eyes, and nose. In addition, body weight was measured on days 0, 3, 7, and 14 following IV administration.

ICR mice = assay: Single-dose IV toxicity in ICR mice; format: in vivo, mouse; conditions: 14 days, n = 4
Excerpt: as §1, §2

[12] = Stability tests of the analytes (HPLC method validation, rat plasma); format: physicochemical; conditions: for Stability of standard stock solution: 1 mg/mL
Protocol: pounds. The analytical method of the analytes was validated by FDA Bioanalytical Method Validation Guidance for Industry. The chromatogram of the rat plasma spiked with J2 and SW15 (IS) or NA49 and NA27 was compared with that of the blank rat plasma in order to confirm the specificity of the analytical method. The calibration curves of J2 and NA49 in rat plasma was built for nine concentration levels in the range of 0.025–10 µg/mL. The sensitivity of detection was evaluated by the lower limit of quantification […]
than the baseline noise. The intra-day precision and accuracy were estimated by analyzing five sets of four quality control (QC) samples (0.025, 0.05, 0.5 and 5 µg/mL) in the same day. The inter-day precision and accuracy were evaluated by analyzing a set of four QC samples on five different days. The precision was expressed as a coefficient of variation (CV%) by calculating the ratio of the standard deviation to the mean measured drug con-centration. The accuracy (%) was calculated by dividing a mean measured drug concen-tration by the theoretical drug concentration. The recovery of the analytes from the plasma samples was evaluated at low and high concentrations (0.05 and 5 µg/mL, respectively) by comparing the peak areas of the analytes after extraction to those before extraction. […]
The short-term stability tests were conducted at room temperature for 4 h for J2 and 6 h for […], while the long-term stability tests were performed at −20°C and −70°C for 2 weeks and 4 weeks, respectively. The stability of the analytes following three freeze-thaw cycles, the post-preparative stability and the stock solution stability were also exam-ined. Each blood sample collected from the experimental animals was transferred into an […]

Work on `Cc1cc(=O)c2c(O)cc(OCC3CS3)cc2o1` (stereo not drawn) [J2] yielded an IC50 [1] of over 100 µM, an IC50 [2] of over 100 µM and an IC50 [3] of over 100 µM. It also gave an IC50 [4] of over 100 µM, an IC50 [5] of 91.8 µM and an IC50 (normal mammalian cells) of at least 91.8 µM. The inhibition at 10 μM (hERG K+ channel) was 8.7 ± 2.22%, the solubility kinetic [6] was 73.2 µM and 19.5 µg/mL and the logP [7] was 2.78. For the same compound, the “In vitro Metabolic Stability (% of remaining after 30 min)” value [8] was 6.2 ± 2.55%, the “In vitro Metabolic Stability (% of remaining after 30 min)” value [9] was 47.8 ± 4.50% and the “Half-life predicted from in vitro plasma stability” value [10] was “about 3 h”. For the same compound, the “In vitro Human Plasma Stability at 37 °C (% of remaining after 1 h)” value ([10]; treated with 0.5 μg/mL) was 76.2% and 76.2 ± 0.72%, the “In vitro Human Plasma Stability at 37 °C (% of remaining after 1 h)” value ([10]; treated with 5 μg/mL) was 82.7% and 82.7 ± 0.73% and the IC50 (CYP2C9) was over 50 µM. For the same compound, the IC50 (CYP450 2D6) was over 50 µM, the LD50 at 14 days [11] was over 30 mg/kg and the “Survival Rate (%)” value (ICR mice; 2.5 mg/kg) was 100%. For the same compound, the “Survival Rate (%)” value (ICR mice; 7.5 mg/kg) was 100%, the “Survival Rate (%)” value (ICR mice; 15 mg/kg) was 100% and the “Survival Rate (%)” value (ICR mice; 30 mg/kg) was 100%. The “Stability of post-preparative sample” value [12] was 102.2–103.4%, the “Stability of standard stock solution” value [12] was 113.2% and the “Stability after three freeze–thaw cycles, mean” value ([12]; low concentration (0.05 µg/mL)) was 116.6%. The “Stability at −70°C for 4 weeks, mean” value ([12]; low concentration (0.05 µg/mL)) was 115.2%.
`COc1ccc(-c2coc3cc(OCC4CS4)ccc3c2=O)c(OC)c1` (stereo not drawn) [NA49] gave an IC50 [1] of 94.5 µM, an IC50 [2] of 91.9 µM and an IC50 [3] of 96.5 µM. It also gave an IC50 [4] of 90.4 µM, an IC50 [5] of 83.6 µM and an IC50 (normal mammalian cells) of 83.6 to 96.5 µM. For the same compound, the inhibition at 10 μM (hERG K+ channel) was 39 ± 3.9%, the solubility kinetic [6] was 90.2 µM and 33.4 µg/mL and the logP [7] was 3.04. The “In vitro Metabolic Stability (% of remaining after 30 min)” value [8] was 2.4 ± 0.95%, the “In vitro Metabolic Stability (% of remaining after 30 min)” value [9] was 24.9 ± 0.77% and the “Half-life predicted from in vitro plasma stability” value [10] was over 6 h. For the same compound, the “In vitro Human Plasma Stability at 37 °C (% of remaining after 1 h)” value ([10]; treated with 0.5 μg/mL) was 146.6% and 146.6 ± 0.01%, the “In vitro Human Plasma Stability at 37 °C (% of remaining after 1 h)” value ([10]; treated with 5 μg/mL) was 101.4% and 101.4 ± 0.13% and the IC50 (CYP2C9) was 19.2 µM. The IC50 (CYP450 2D6) was over 50 µM, the LD50 at 14 days [11] was over 30 mg/kg and the “Survival Rate (%)” value (ICR mice; 2.5 mg/kg) was 100%. For the same compound, the “Survival Rate (%)” value (ICR mice; 7.5 mg/kg) was 100%, the “Survival Rate (%)” value (ICR mice; 15 mg/kg) was 100% and the “Survival Rate (%)” value (ICR mice; 30 mg/kg) was 75%. The “Stability of post-preparative sample” value [12] was 96.9–102.4% and the “Stability of standard stock solution” value [12] was 98.7%.
